The structures appear in SMILES notation.

Drawing on patent US8563567B2, “Substituted heterocyclic compounds” (ArQule, Inc., priority 2009, dated 2013), this text covers inhibition for 16 compounds.

Assay [1] deals with T1, FGFR2 (N549H) (Homo sapiens, UniProt P21802, N549H).
T1 construct: purchased Millipore 14-742
Nature of the assay: FGFR2 kinase activity assay (fluorescent ELISA). The assay is classed as biochemical. The procedure:
The enzymatic assays described herein are conducted according to the following procedures from commercially available reagents. In one, non limiting, example, a fluorescent ELISA assay is used to identify and characterize inhibitors of FGFR2 kinase as described herein. This heterogeneous assay utilizes a biotinylated peptide with a tyrosine motif as a substrate and an anti-phospho-tyrosine antibody to measure phosphorylation of the substrate. The reaction is initiated by adding the test compound, 37 μM Pyk2 substrate (Midwest Biotech, Cat. # MBT2383), 12.5 μM ATP (Roche, Cat. #11 140 965 001) and 0.5 μM FGFR2 enzyme (Millipore, Cat. #14-742) sequentially to a non-binding polypropylene V-well plate. All reagents are in an assay buffer consisting of: 50 mM Tris-HCL, 0.02 mg/ml BSA, 10 mM MgCl2, 0.1 mM Na3VO4, 1 mM EGTA, 75 μM ATP, 0.01% NP-40, 2 mM DTT and 10% glycerol. The reaction is incubated for 60 minutes. As the reaction proceeds, FGFR2 phosphorylates tyrosines in the peptide. The reaction mixture is then moved to a blocked streptavidin-coated Nunc Maxisorb plate (coated with 100 ng streptavidin from Pierce (Cat. #15-124) per well), allowing for the capture of the biotinylated peptide. Peptides are captured for 30 minutes at room temperature, the phosphorylation of peptides continues during this phase. The reaction is stopped by washing the streptavidin-coated plate 6 times with TBST. Phosphorylated peptide is detected by adding anti-phospho-tyrosine antibody (Cell Signaling, Cat. #9411, diluted 1:3000) to the streptavidin-coated plate. Unbound anti-phospho-tyrosine antibody is removed by washing the streptavidin-coated plate 6 times with TBST. Secondary detection is performed using alkaline phosphatase tagged goat anti-mouse antibody (Pierce, Cat. #31320, diluted 1:4000) for one hour. Unbound secondary antibody is removed by washing the streptavidin-coated plate 6 times with TBST. The fluorescent readout is initiated by adding to the streptavidin-coated plate Promega Attophos substrate (Promega, Cat. # S1000, dilution=6 mg/10 ml), which, when dephosphorylated by alkaline phosphatase, emits a fluorescent signal of 595 nm in wavelength when excited by a signal of 400 nm in wavelength. The reading of the 595 nm signal is done on the Perkin Elmer Envision system. Compounds which prevent FGFR2 from phosphorylating the peptide result in a lower fluorescent signal. The 595 nm fluorescent signal is directly proportional to the activity of FGFR2. Thus, the inhibition of FGFR2 by compounds is monitored by the decrease in the 595 nm fluorescent signal.
A general note: An ELISA detects its analyte on a solid surface through an enzyme-linked reagent.

The test system of assay [2] is DLD-1. Nature of the assay: MTS assay, DLD-1. As to conditions: Homo sapiens, DLD-1, 72 h. In kind it is cell-based. The procedure: (§1) Cells were maintained at 37° C., 5% CO2 in RPMI media supplemented with 1% fetal bovine serum, penicillin/streptomycin and fungizone (Invitrogen). Cells were seeded into 96-well tissue culture plates at 3000 per well and cultured at 37° C. for 18 h. Test compounds were dissolved and diluted to 300× in DMSO then diluted 1:40 in DMEM. Cells were incubated with test compounds for 72 hours followed by incubation with tetrazolium compound (3-(4,5-dimethylthiazol-2-yl)-5-(3-carboxymethoxyphenyl)-2-(4-sulfophenyl)-2H-tetrazolium, inner salt; MTS) and the electron coupling reagent, phenazine methosulfate (PMS) for 4 hours. […] The ability of compounds to inhibit cell growth in this assay is correlated with the reduction of dehydrogenase enzyme activity found in metabolically active cells. The measurement of the absorbance of the formazan was assessed using an ENVISION™ (Perkin Elmer) microplate reader at 492 nm. The calculated IC50 value is the concentration of the test compound that causes a 50% decrease in the absorbance.
A general note: Tetrazolium dyes change colour on reduction, which living cells bring about.

For assay [3], the target named is Abl (T315I) (Homo sapiens, UniProt P00519, T315I). Briefly: Abl kinase activity assay (fluorescent ELISA, AblTide substrate). The assay is classed as biochemical. The procedure: The disclosed compounds were assayed for their ability to inhibit the activity of ABL kinase. Nunc Maxisorb plates are coated with streptavidin by overnight incubation with 100 μL per well of 1 μg/mL streptavidin in DPBS. Prior to the start of the experiment, the plates are washed with TBST (3×200 μL) and blocked for at least 3 hours by adding 150 μL of 5% BSA/TBST. The plates are washed with TBST (3×200 μL/well) and left dry immediately before the capture step.
The test articles and controls (Gleevec) are prepared using the following assay buffer @ 10× desired final concentration (50 mM Tris pH 7.0, 0.02 mg/ml BSA, 10 mM MgCl2, 0.1 mM Na3VO4, 1 mM EGTA, 0.01% NP-40, 1 mM DTT in 10% glycerol/water). In a reaction plate are added rapidly 5 μL test article (or control) and 30 μL ABL or ABL T315I (0.089 nM final concentration, in the above buffer). The plate is incubated for 20 minutes. To the reaction plate is added ATP (100 μM final concentration) and AblTide (128 nM final concentration) in a volume of 15 μL. The plate is incubated at room temperature for one hour.
From the reaction plate, 40 μL is transferred to the streptavidin coated plate. The capture plate is incubated at room temperature for 30 minutes then washed 3× with TBST. To the capture plate is added 100 μL/well of Cell Signaling anti-phospho tyrosine at a dilution of 1:3000 in 2% BSA/TBST. The plate is incubated for two hours at room temperature then washed 3× with TBST. To the capture plate is added 100 μL/well of Alkaline Phosphatase Tagged Goat anti Mouse Antibody at a dilution of 1:4000 in 2% BSA/TBST. The plate is incubated for one hour at room temperature then washed 3× with TBST.
The fluorescent readout was initiated by the addition of 100 μL/well of Attophos reagent (6 mg/10 mL). The reading was done on the Perkin Elmer Envision system.

Assay [4] concerns MDA-MB-231. Briefly: MTS assay, MDA-MB-231. In kind it is cell-based. As to conditions: Homo sapiens, MDA-MB-231, 72 h. The procedure:
as §1

T1 sequence (P21802 22-821 N549H): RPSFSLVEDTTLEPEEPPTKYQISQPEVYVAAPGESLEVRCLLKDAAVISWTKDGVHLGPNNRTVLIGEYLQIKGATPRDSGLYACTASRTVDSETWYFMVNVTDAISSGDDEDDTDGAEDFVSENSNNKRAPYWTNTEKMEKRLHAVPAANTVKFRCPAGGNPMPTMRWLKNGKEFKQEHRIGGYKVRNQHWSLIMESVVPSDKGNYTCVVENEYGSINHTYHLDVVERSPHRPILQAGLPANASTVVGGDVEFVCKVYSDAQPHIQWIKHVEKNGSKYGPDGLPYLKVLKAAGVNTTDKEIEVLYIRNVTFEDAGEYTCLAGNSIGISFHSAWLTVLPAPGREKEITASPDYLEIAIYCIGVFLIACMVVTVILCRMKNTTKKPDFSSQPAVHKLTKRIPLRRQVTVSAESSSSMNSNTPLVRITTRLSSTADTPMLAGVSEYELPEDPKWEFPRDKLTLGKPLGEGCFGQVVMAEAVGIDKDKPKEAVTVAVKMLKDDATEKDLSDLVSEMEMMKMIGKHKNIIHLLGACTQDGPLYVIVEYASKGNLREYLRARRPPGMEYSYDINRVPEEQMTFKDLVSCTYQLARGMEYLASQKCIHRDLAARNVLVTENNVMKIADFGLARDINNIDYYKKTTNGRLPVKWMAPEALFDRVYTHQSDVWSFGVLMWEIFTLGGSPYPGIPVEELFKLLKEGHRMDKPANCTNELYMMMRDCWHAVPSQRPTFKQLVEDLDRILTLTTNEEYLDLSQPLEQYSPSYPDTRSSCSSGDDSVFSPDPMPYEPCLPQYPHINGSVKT

Regarding `O=c1[nH][nH]c(-c2ccc(Cl)cc2Cl)c1-c1cn2c3c(cccc13)CCC2` [Compound 17, 5-(2,4-dichlorophenyl)-4-(5,6-dihydro-4H-pyrrolo[3,2,1-ij]quinolin-1-yl)-1,2-dihydro-3H-pyrazol-3-one], the inhibition (in general, the share of the control response that was lost under treatment) at 30 µM in assay [1] worked out at 48%. The inhibition at 10 µM was determined as 40% in assay [2] and 81% in assay [3].
With `O=c1[nH][nH]c(-c2ccccc2Cl)c1-c1cn2c3c(cccc13)CCC2` [Compound 15, 5-(2-chlorophenyl)-4-(5,6-dihydro-4H-pyrrolo[3,2,1-ij]quinolin-1-yl)-1,2-dihydro-3H-pyrazol-3-one], 30 µM produced 33% inhibition in assay [1]. Also, the inhibition at 10 µM in assay [3] is 20%.
Take `COc1ccc(-c2[nH][nH]c(=O)c2-c2cn3c4c(cccc24)CCC3)cc1` [Compound 18, 4-(5,6-dihydro-4H-pyrrolo[3,2,1-ij]quinolin-1-yl)-5-(4-methoxyphenyl)-1,2-dihydro-3H-pyrazol-3-one]: the inhibition at 10 µM in assay [4] stood at 59%; in assay [2] it was 72%; in assay [3], 9%.
For the compound `Cc1ccc(-c2[nH][nH]c(=O)c2-c2cn3c4c(cccc24)CCC3)cc1` [Compound 16, 4-(5,6-dihydro-4H-pyrrolo[3,2,1-ij]quinolin-1-yl)-5-(4-methylphenyl)-1,2-dihydro-3H-pyrazol-3-one], the inhibition at 10 µM in assay [4] came out at 63%; in assay [2], 78%; in assay [3], 83%.
Take `O=c1[nH][nH]c(C2CCCC2)c1-c1cn2c3c(cccc13)CCC2` [Compound 19, 5-cyclopentyl-4-(5,6-dihydro-4H-pyrrolo[3,2,1-ij]quinolin-1-yl)-1,2-dihydro-3H-pyrazol-3-one]: the inhibition at 10 µM in assay [3] stood at 77%.
In turn, `O=c1[nH][nH]c(-c2cn3c4c(cccc24)CCC3)c1-c1c[nH]c2ccccc12` [Compound 4, 5-(5,6-dihydro-4H-pyrrolo[3,2,1-ij]quinolin-1-yl)-4-(1H-indol-3-yl)-1,2-dihydro-3H-pyrazol-3-one] gave an inhibition at 30 µM in assay [1] of 96%. This compound had an inhibition at 10 µM in assay [3] of 63%.
Regarding `COc1ccc(NC(=O)N2CCC(CNc3nccc(-c4cn5c6c(cccc46)CCC5)n3)CC2)cc1` [Compound 38, 4-((4-(5,6-dihydro-4H-pyrrolo[3,2,1-ij]quinolin-1-yl)pyrimidin-2-ylamino)methyl)-N-(4-methoxyphenyl)piperidine-1-carboxamide], the inhibition at 10 µM in assay [4] is 98%; in assay [2], 97%. The compound also had an inhibition at 30 µM in assay [1] of 79%.
`Cc1ccc(NC(=O)N2CCC(CNc3nccc(-c4cn5c6c(cccc46)CCC5)n3)CC2)cc1` [Compound 45, 4-((4-(5,6-dihydro-4H-pyrrolo[3,2,1-ij]quinolin-1-yl)pyrimidin-2-ylamino)methyl)-N-p-tolylpiperidine-1-carboxamide]: the inhibition at 10 µM in assay [4] was 72%; in assay [2], 94%. The compound also displayed an inhibition at 30 µM in assay [1] of 64%.
With `O=C(Nc1ccccc1)N1CCC(CNc2nccc(-c3cn4c5c(cccc35)CCC4)n2)CC1` [Compound 42, 4-((4-(5,6-dihydro-4H-pyrrolo[3,2,1-ij]quinolin-1-yl)pyrimidin-2-ylamino)methyl)-N-phenylpiperidine-1-carboxamide], the inhibition at 10 µM was 79% in assay [4] and 97% in assay [2]. The inhibition at 30 µM in assay [1] worked out at 66%.
On to `CCOc1ccc2ccccc2c1-c1[nH][nH]c(=O)c1-c1cn2c3c(cccc13)CCC2` [Compound 22, 4-(5,6-dihydro-4H-pyrrolo[3,2,1-ij]quinolin-1-yl)-5-(2-ethoxy-1-naphthyl)-1,2-dihydro-3H-pyrazol-3-one], for which the inhibition at 30 µM in assay [1] amounted to 41%. In addition, in assay [3], testing at 10 µM gave an inhibition of 11%.
`O=c1[nH][nH]c(-c2ccccc2Br)c1-c1cn2c3c(cccc13)CCC2` [Compound 20, 5-(2-bromophenyl)-4-(5,6-dihydro-4H-pyrrolo[3,2,1-ij]quinolin-1-yl)-1,2-dihydro-3H-pyrazol-3-one] yielded an inhibition at 30 µM in assay [1] of 45%. For the same compound, testing at 10 µM in assay [3] gave an inhibition of 87%.
As for `O=C(Nc1ccccc1OC(F)F)N1CCC(CNc2nccc(-c3cn4c5c(cccc35)CCC4)n2)CC1` [Compound 50, N-(2-(difluoromethoxy)phenyl)-4-((4-(5,6-dihydro-4H-pyrrolo[3,2,1-ij]quinolin-1-yl)pyrimidin-2-ylamino)methyl)piperidine-1-carboxamide], the values for the inhibition at 10 µM in assay [4] and in assay [2] were 53% and 55%, respectively. For the same compound, testing at 30 µM in assay [1] gave an inhibition of 55%.
For `CC(C)c1[nH][nH]c(=O)c1-c1cn2c3c(cccc13)CCC2` [Compound 23, 4-(5,6-dihydro-4H-pyrrolo[3,2,1-ij]quinolin-1-yl)-5-isopropyl-1,2-dihydro-3H-pyrazol-3-one], in assay [3], the inhibition at 10 µM is 8%.
`O=c1[nH][nH]c(-c2cccc(F)c2)c1-c1cn2c3c(cccc13)CCC2` [Compound 21, 4-(5,6-dihydro-4H-pyrrolo[3,2,1-ij]quinolin-1-yl)-5-(3-fluorophenyl)-1,2-dihydro-3H-pyrazol-3-one] returned an inhibition at 30 µM in assay [1] of 75%. This compound also had an inhibition at 10 µM in assay [3] of 79%.
As to `CCCNC(=O)N1CCC(CNc2nccc(-c3cn4c5c(cccc35)CCC4)n2)CC1` [Compound 43, 4-((4-(5,6-dihydro-4H-pyrrolo[3,2,1-ij]quinolin-1-yl)pyrimidin-2-ylamino)methyl)-N-propylpiperidine-1-carboxamide], the inhibition at 10 µM in assay [4] was 43%; in assay [2] it was 86%. This compound also came in with an inhibition at 30 µM in assay [1] of 65%.
The like results for `COc1ccccc1C(=O)N1CCC(CNc2nccc(-c3cn4c5c(cccc35)CCC4)n2)CC1` [Compound 54, (4-((4-(5,6-dihydro-4H-pyrrolo[3,2,1-ij]quinolin-1-yl)pyrimidin-2-ylamino)methyl)piperidin-1-yl)(2-methoxyphenyl)methanone] were, in that order, 37%, 95% and 46%.
